“Also recorded” adds a separate entry of the source.

In series [1] the target is T1, Na+K+Cl− co-transporter (Rattus norvegicus, UniProt E9PTX9).
T1 construct: endogenous in cells; host or cells: A7r5 cells
T1 sequence (E9PTX9 1-1203): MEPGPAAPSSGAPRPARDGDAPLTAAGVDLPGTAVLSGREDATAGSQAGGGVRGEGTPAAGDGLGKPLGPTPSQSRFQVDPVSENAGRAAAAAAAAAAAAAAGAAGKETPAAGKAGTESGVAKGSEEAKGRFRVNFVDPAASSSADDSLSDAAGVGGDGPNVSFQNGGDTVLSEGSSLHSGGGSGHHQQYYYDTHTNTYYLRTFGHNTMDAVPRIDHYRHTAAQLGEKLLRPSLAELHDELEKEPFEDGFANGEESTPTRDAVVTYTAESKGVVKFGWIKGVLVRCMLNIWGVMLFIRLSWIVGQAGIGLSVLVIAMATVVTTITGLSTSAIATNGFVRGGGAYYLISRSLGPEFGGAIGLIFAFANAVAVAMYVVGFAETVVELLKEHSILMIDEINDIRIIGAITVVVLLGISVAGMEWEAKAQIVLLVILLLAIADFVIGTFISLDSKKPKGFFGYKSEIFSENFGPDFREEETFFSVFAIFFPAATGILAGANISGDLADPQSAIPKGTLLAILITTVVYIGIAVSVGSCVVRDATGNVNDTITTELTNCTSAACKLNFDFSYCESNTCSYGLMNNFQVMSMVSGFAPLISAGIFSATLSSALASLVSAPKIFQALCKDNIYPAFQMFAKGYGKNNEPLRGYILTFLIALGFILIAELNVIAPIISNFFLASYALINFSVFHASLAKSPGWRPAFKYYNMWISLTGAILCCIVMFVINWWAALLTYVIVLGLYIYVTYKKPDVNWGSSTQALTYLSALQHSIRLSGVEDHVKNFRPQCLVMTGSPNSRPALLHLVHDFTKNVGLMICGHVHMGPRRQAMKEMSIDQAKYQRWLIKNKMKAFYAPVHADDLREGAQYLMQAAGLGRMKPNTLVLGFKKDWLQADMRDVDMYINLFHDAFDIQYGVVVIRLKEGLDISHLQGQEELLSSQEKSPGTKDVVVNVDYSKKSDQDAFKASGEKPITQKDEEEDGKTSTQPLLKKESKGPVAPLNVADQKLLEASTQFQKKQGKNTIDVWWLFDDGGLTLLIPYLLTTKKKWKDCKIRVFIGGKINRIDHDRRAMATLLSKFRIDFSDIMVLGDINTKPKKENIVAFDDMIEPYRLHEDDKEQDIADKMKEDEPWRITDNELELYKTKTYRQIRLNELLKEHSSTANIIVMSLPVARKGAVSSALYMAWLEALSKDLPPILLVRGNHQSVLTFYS
The series can be described thus: Na+K+Cl− cotransporter assay, 86Rb uptake in A7r5 cells. The class given is cell-based. To be noted: 10 minutes at 37° C.; for inhibition at 10 µM: read-out: % Inhibition of Control Values; for remaining activity at 10 µM: read-out: % of Control Value. As for the experimental part: Na^+K^+Cl^− co-transporter activity was measured in vitro in A7r5 cells by measuring their uptake of ^86Rb (0.2 μCi) in 10 minutes at 37° C. as detected by scintillation counting. See Chassande, et al. (1988) “The Na^+/K^+/Cl^− Cotransport in C6 glioma cells. Properties and role in volume regulation.” Eur. J. Biochem. 171: 425433.

For series [2], the system named is Mice. The series can be described thus: 6 Hz (Mice). The series is classed as in vivo.
Series [3] relates to Rat. Kind of series: Exploratory Bennett neuropathic pain (rat), plus inhibitor. The series is classed as in vivo.
Series [4] concerns Male CD-1 mice. Kind of series: 52° C. warm water tail-flick test (acute nociceptive study). The class given is in vivo, mouse. To be noted: for Activity in tail-flick test: all doses starting at 32 mg/kg (NTP-2014) or 56 mg/kg (NTP-2026, NTP-2024); for % Antinociception: A50 not determined. An excerpt: Subjects: Male CD-1 (25-35 g, Charles River) were used for all studies. Mice were housed in groups of five in Plexiglas chambers with food and water available ad libitum. All animals were maintained on a 12 hr light/dark cycle (lights on at 7:00 AM) in a temperature- and humidity-controlled animal colony. The health status of the animals used in this study were examined on arrival. Only animals in good health were acclimatized to laboratory conditions and used in the study. The acclimation period to the vivarium was a minimum of 7 days. All animal experiments were performed under an approved protocol in accordance with institutional guidelines and in accordance with the Guide for the Care and Use of Laboratory Animals as adopted and promulgated by the National Institutes of Health.
Behavioral Testing: Efficacy of the test compounds were assessed using the 52° C. warm water tail-flick test. The latency to the first sign of a rapid tail-flick was taken as the behavioral endpoint (Jannsen, et al. 1963). Each mouse was first tested for baseline latency by immersing its tail in the water and recording the time to response. Mice not responding within 5 seconds were excluded from further testing. Test compounds were then injected and the mice were rested for thermal latencies at 10, 20, 30, 45, 60, 90, 120 and 180 minutes post-injection (if a drug effect dropped below 20% for the group average then the testing was halted for that group). Antinociception was calculated by the following formula: % Antinociception=100×(test latency−control latency)/(10-control latency). A maximum score was assigned (100%) to animals not responding within 10 seconds to avoid tissue damage.
Preparation of Test Materials: NTP-2014 (m.w. 420.52 for free base; lot number: 004JXS047) was dissolved in 0.2% hydroxypropylmethylcellulose (HPMC) in physiological saline to yield final concentrations of between 3.2 and 10 mg/ml (pH ˜7.4). NTP-2024 (m.w. 433.52 for free base; lot number: 024DGM048) was dissolved in 0.2% HPMC in physiological saline to yield final concentrations of between 5.6 and 18 mg/ml (pH ˜7.4). NTP-2026 (m.w. 462.61 for free base; lot number: 002JRA064) was first dissolved in 100% ETOH (10× solution) and then this stock solution was diluted to final concentrations of 5.6-10 mg/ml using 0.2% HPMC in physiological saline (pH ˜7.4). Final ETOH concentration was approximately 10%. Tween 80 (1-2 drops) was added to all solutions to aid in solubilization of compounds.
All groups contained n=8-10 mice.
For orientation: Thermal pain tests record how soon the animal reacts.

As to `CCCCNc1cc(C(=O)O)cc(S(N)(=O)=O)c1Oc1ccccc1` [Bumetanide, reference compound], in series [1], the inhibition at 10 µM was determined as 76% and the remaining activity at 10 µM is 24%.

Consider `CCCCN(CCCC)c1cc(C(=O)O)cc(S(N)(=O)=O)c1Oc1ccccc1` [NTP-2014, 3-Aminosulfonyl-5-N,N-dibutylamino-4-phenoxybenzoic acid], for which the “Toxicity in 6 Hz study” value in series [2] (100 mg/kg) was “mg/kg. No toxicity”. For the same compound, the “Suppression / activity in 6 Hz” value in series [2] (100 mg/kg, NTP-2014: all animals to 1 h, majority through 4 h, NTP-2026: 2 timepoints (2 hr, 4 hr)) is “Complete”. Moreover, the “Activity against tactile allodynia” value in series [3] is “Significant effects against tactile allodynia”. Moreover, the “Activity in tail-flick test” value in series [4] (mice) is recorded as “effective analgesic effects; also recorded: Significant activity in tail-”. For the same compound, the “% anti-nociception relative to high dose morphine” value in series [4] (tail-flick test, mice, without behavioral observations) is “nociception equal to high”. In series [1], the inhibition at 10 µM is -4% and the remaining activity at 10 µM was found to be 104%.

In the case of `CCCCNc1cc(C(=O)NN2CCOCC2)cc(S(N)(=O)=O)c1Oc1ccccc1` [NTP-2024, N-Morpholinyl 3-Aminosulfonyl-5-N-butylamino-4-phenoxybenzamide], the “Activity in 6 Hz” value in series [2] (doses up to 200 mg/kg, no metabolic inhibitor coadministered) is “No activity at doses”. The “Activity against tactile allodynia” value in series [3] is given as “Dose-related activity against tactile”. The “% Antinociception” value in series [4] (180 mg/kg) is about 48%. Also, the “Activity in tail-flick test” value in series [4] (mice) is listed as “Significant activity in tail-”. Moreover, in series [1] (10 μM), the “% Inhibition of Control Values” was found to be 20% and the “% of Control Value” turned out to be 80.2%.

Turning to `CCCCNc1cc(C(=O)N(C)CCCN(C)C)cc(S(N)(=O)=O)c1Oc1ccccc1` [NTP-2026, N-(3-(Dimethylamino)propyl)-N-methyl 3-Aminosulfonyl-5-N-butylamino-4-phenoxybenzamide], the “Toxicity in 6 Hz study” value in series [2] (100 mg/kg) is given as “No toxicity”. Besides, the “Activity against tactile allodynia” value in series [3] is recorded as “Very low doses tested, no significant”. Besides, the “% Antinociception” value in series [4] (56 mg/kg) is on record as about 25%. In addition, the “Activity in tail-flick test” value in series [4] (mice) was “Significant activity in tail-”.

The term inhibition denotes the drop in the measured response relative to a control, in per cent.

These data come from US9682928B2 (NeuroPro Therapeutics, Inc., priority 2009, dated 2017).
